# Target: T1, aggregated amyloid beta (Aβ1-42) (Homo sapiens, UniProt P05067)
# T1 construct: Aβ1-42 peptide was aggregated in vitro using the following procedure
# Assay: In vitro binding studies of compounds with amyloid beta: fluorescent emission spectra with and without aggregated Aβ
# Conditions: fold increase at maximum emission (compound+Aβ/compound), 4 μM compound, 5 μM aggregated Aβ in 1×PBS; for Fold Increase @ 450 nm: excitation 450 nm; for Fold Increase @ 488 nm: excitation 488 nm
# Experimental: The fluorescent properties and emission spectra of compounds described herein with aggregated amyloid beta (Aβ1-42) were characterized as described below.
# Emission spectra for compounds described herein were collected after incubation of the compounds with and without aggregated Aβ at specific excitation wavelengths (450 nm and 488 nm) employed in standard ocular imaging equipment.
# Aβ1-42 peptide was aggregated in vitro using the following procedure. Aβ42 (HFIP) was removed from the freezer and allowed to warm to room temperature, then 1 mg of Aβ42 was dissolved in 215 μL of ddH2O for about 10-20 mins at room temperature. To the resulting solution, 2 mL of ddH2O was added to provide a 100 μM stock solution. A 100 μL aliquot was sampled and frozen (non-aggregated sample). The tubes were placed in a thermoshaker at 350 rpm for 3 days. Care was taken to avoid generating bubbles. Aβ aggregation was confirmed by measuring binding to Thioflavin T (ThT). Aggregated Aβ1-42 peptide was then portioned into 150 μL aliquots and stored at −80° C.
# The fluorescent emission spectra were measured as follows to determine binding of Aβ to test compounds described herein. The Shimadzu fluorimeter was turned on and allowed to warm up for ˜60 minutes. The test compounds were then removed from the −20° C. freezer and were allowed to warm to room temperature. The 100 μM aggregated Aβ solution was then removed from the −80° C. freezer and also allowed to warm to room temperature. 250 μM solutions of each test compound in DMSO were then prepared. These were then used to prepare 4 μM solutions of each test compound, with and without 5 μM aggregated Aβ in 1×PBS, in triplicates. Using a cuvette, the fluorescent emission spectra were measured for each test compound+Aβ solution, employing a DMSO/PBS solution as a blank. Each sample was tested at an excitation of 450 nm and 488 nm. Fluorescent emission spectra were then collected for each 4 μM test compound solution alone. The resulting data were used to plot intensity vs. wavelength for each emission scan.
# T1 sequence (P05067 672-713 limits assumed): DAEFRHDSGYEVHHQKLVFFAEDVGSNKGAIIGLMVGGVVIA
SMILES,Fold Increase @ 450 nm,Fold Increase @ 488 nm
"N#C/C(=C\c1ccc2cc(N3CCCCC3)ccc2c1)C(=O)NCC(O)CO (centres unmarked) [Compound 4, (E)-2-cyano-N-(2,3-dihydroxypropyl)-3-(6-(piperidin-1-yl)naphthalen-2-yl)acrylamide, reference compound]",15.28,18.53
"N#C/C(=C\c1ccc2cc(N3CCCC3)ccc2c1)C(=O)NCC(O)CO (centres unmarked) [Compound 5, (E)-2-cyano-N-(2,3-dihydroxypropyl)-3-(6-(pyrrolidin-1-yl)naphthalen-2-yl)acrylamide]",18.18,22.81
"N#C/C(=C\c1ccc2ccccc2c1N1CCCCC1)C(=O)NCC(O)CO (centres unmarked) [Compound 6, (E)-2-cyano-N-(2,3-dihydroxypropyl)-3-(1-(piperidin-1-yl)naphthalen-2-yl)acrylamide]",7.12,17.18
"N#C/C(=C\c1ccc2ccccc2c1N1CCC1)C(=O)NCC(O)CO (centres unmarked) [Compound 7, (E)-3-(1-(azetidin-1-yl)naphthalen-2-yl)-2-cyano-N-(2,3-dihydroxypropyl)acrylamide]",4.31,2.84
"N#C/C(=C\c1ccc2cc(N3CCCCC3)ccc2c1)C(=O)CC[C@H](O)CO [Compound 8, (S,E)-6,7-dihydroxy-3-oxo-2-((6-(piperidin-1-yl)naphthalen-2-yl)methylene)heptanenitrile]",9.48,19.60
"N#C/C(=C\c1ccc2cc(N3CCCCC3)ccc2c1)C(=O)CCCOCCOCCO [Compound 9, (E)-6-(2-(2-hydroxyethoxy)ethoxy)-3-oxo-2-((6-(piperidin-1-yl)naphthalen-2-yl)methylene)hexanenitrile]",10.16,9.11
"N#C/C(=C\c1ccc2cc(N3CCC3)ccc2c1)C(=O)NCC(O)CO (centres unmarked) [Compound 10, (E)-3-(6-(azetidin-1-yl)naphthalen-2-yl)-2-cyano-N-(2,3-dihydroxypropyl)acrylamide]",21.98,19.13
